# Measurements published in patent publication US20210227824A1, “METHOD OF REDUCING CROP DAMAGE” (Bayer Aktiengesellschaft, priority 2018, published 2021).
# What was measured:
# Type in all cases: in vivo
# winter wheat, TRZAW [1] = test: Method A: safener seed treatment, herbicide post-emergence, visual % crop damage; conditions: safener seed treatment 0.5 g/kg only, no herbicide
# Experimental: (§1) For the safener seed treatment, sufficient seeds were weighed into screw top glass bottles approximately twice the volume of the seeds.
# (§2) The safener (mefenpyr-diethyl, formulated as suspension concentrate (SC)) was weighed out so that the required rates (g a.i./kg seed) would be obtained, dissolved in water (1 ml water per 10 g of seeds), and added to the seeds to produce a slurry.
# (§3) The bottles were capped and then placed in an overhead shaker (set at medium speed for up to 1 hour) so that the seeds were evenly coated with the slurry. The bottles were uncapped and the seeds were sown as described above.
# (§4) For the seed treatment process, the blind formulation (the SC formulation without the safener mefenpyr-diethyl) was used as seed treatment as described above.
# Post-emergence application of the herbicide was done when the plants had reached growth stage BBCH11.
# (§5) After application, the test plants were kept in the greenhouse under good growth conditions.
# (§6) Values in the table below are mean values from at least 3 replicates.
# winter wheat, TRZAW [2] = test: Method C: safener seed treatment, herbicide and safener tank mix post-emergence, visual % crop damage
# Experimental: as §1, §2, §3, §4
# Post-emergence application was done when the plants had reached growth stage BBCH11.
# The safener (mefenpyr-diethyl) was formulated as wettable powder (WP).
# (§7) The combination of herbicide and safener was applied as a tank mix.
# as §5, §6
# winter wheat, TRZAW [3] = test: Method D: safener seed treatment, herbicide and safener tank mix pre-emergence, visual % crop damage
# Experimental: as §1, §2, §3, §4, §7, §5, §6
# [4] = safener seed treatment 0.5 g/kg only, no herbicide
smiles,measurement,setting,value
"CCOC(=O)C1=NN(c2ccc(Cl)cc2Cl)C(C)(C(=O)OCC)C1 (centres unmarked) [Safener seed treatment, ethyl 1-(2,4-dichlorophenyl)-5-(ethoxycarbonyl)-5-methyl-2-pyrazoline-3-carboxylate]",% crop damage,"winter wheat, TRZAW [1]",0%
same,% crop damage,"winter wheat, TRZAW [2]; safener 200 g/ha in tank mix only, post-emergence, 14 days after application",5%
same,% crop damage,"winter wheat, TRZAW [2]; [4]",0%
same,% crop damage,"winter wheat, TRZAW [3]; safener 200 g/ha in tank mix only, pre-emergence, 14 days after application",5%
same,% crop damage,"winter wheat, TRZAW [3]; [4]",2%
